Laboratory results: ChEMBL document CHEMBL5303304, “EUbOPEN Chemogenomics Library - IncuCyte” (2023)
Several values for one entry are separate records, joined by “and”; a condition that tells them apart may be missing. Equal values may be shown once.

Tests used:
Type in all cases: toxicity, cell-based
[1] = tested on: U2OS; experiment: Incucyte cell viability with U2OS; details: human, 10 µM, compound concentration 10 uM
[2] = tested on: HEK-293T; experiment: Incucyte cell viability with HEK293T; details: human, 10 µM, compound concentration 10 uM
[3] = tested on: Fibroblast; experiment: Incucyte cell viability with human fibroblast; details: 10 µM, compound concentration 10 uM
Also: unitless GR value; below 1 slowed growth and below 0 cell loss.

Compound	Growth Rate ([1]; 6 h, replicate number 1)	Growth Rate ([2]; 12 h, replicate number 2)	Growth Rate ([2]; 18 h, replicate number 2)	Growth Rate ([2]; 24 h, replicate number 2)	Growth Rate ([3]; 0 h, replicate number 1)	Growth Rate ([3]; 6 h, replicate number 1)	Growth Rate ([3]; 6 h, replicate number 2)	Growth Rate ([3]; 12 h, replicate number 1)	Growth Rate ([3]; 12 h, replicate number 2)	Growth Rate ([3]; 18 h, replicate number 1)	Growth Rate ([3]; 24 h, replicate number 1)	Growth Rate ([3]; 24 h, replicate number 2)	Growth Rate ([1]; 12 h, replicate number 1)	Growth Rate ([1]; 18 h, replicate number 1)	Growth Rate ([1]; 18 h, replicate number 2)	Growth Rate ([1]; 24 h, replicate number 1)	Growth Rate ([1]; 24 h, replicate number 2)	Growth Rate ([2]; 0 h, replicate number 1)	Growth Rate ([2]; 0 h, replicate number 2)	Growth Rate ([3]; 0 h, replicate number 2)	other results
CCOC(=O)/N=C(\N)c1ccc(OCc2cccc(COc3ccc(C(C)(C)c4ccc(OC(=O)OCC)cc4)cc3)c2)cc1	0.84	-0.1	0.08	0.11	-0.98	0.42	-0.28	0.73	0.87	0.66	0.41	0.79									Growth Rate ([2]; 6 h, replicate number 1): -0.49; Growth Rate ([2]; 6 h, replicate number 2): -0.42; Growth Rate ([2]; 12 h, replicate number 1): 0.04; Growth Rate ([2]; 18 h, replicate number 1): 0.49; Growth Rate ([2]; 24 h, replicate number 1): 0.77; Growth Rate ([3]; 18 h, replicate number 2): 0.76
CC1(C)OC(=O)c2ccc(Nc3ncc(-c4nnco4)c(N[C@H](CO)c4ccccc4)n3)cc21		-0.01	-0.01	-0.02		-1							0.78	0.44	0.69	0.47	0.62	0.28	-0.28	-0.49	Growth Rate ([1]; 0 h, replicate number 2): -0.4; Growth Rate ([2]; 12 h, replicate number 1): 0.23; Growth Rate ([2]; 18 h, replicate number 1): 0.12; Growth Rate ([2]; 24 h, replicate number 1): 0.09
COc1cc(CN(CCN)C(=O)N[C@@H](C)c2ccccc2)ccc1OCc1ccccc1.Cl	0.64	0.77	0.81	0.74	-1	0.29		0.94	0.41	0.87	0.72	0.83	0.69	0.98	0.92	0.79	1				Growth Rate ([1]; 0 h, replicate number 1): -0.64; Growth Rate ([1]; 0 h, replicate number 2): -0.26; Growth Rate ([1]; 6 h, replicate number 2): 0.82; Growth Rate ([3]; 18 h, replicate number 2): 0.71
CCC(F)(F)c1cc(N2CCC(S(C)(=O)=O)CC2)nc2sc(C(N)=O)c(N)c12 [BI-605906]	0.71	0.72	0.97 and 0.85	0.91	0.11	0.8	0.76 and 0.88	0.8	0.85 and 0.57 and 0.87	0.99	0.9 and 0.91	0.97 and 0.94		0.91	0.92	0.96	0.9	-0.07		0.48	Growth Rate ([1]; 12 h, replicate number 2): -0.82; Growth Rate ([2]; 6 h, replicate number 1): 0.34 and 0.47; Growth Rate ([2]; 6 h, replicate number 2): 0.83 and 0.48; Growth Rate ([2]; 12 h, replicate number 1): 0.79 and 0.84; Growth Rate ([2]; 18 h, replicate number 1): 0.74 and 0.73; Growth Rate ([2]; 24 h, replicate number 1): 0.98
O=C(O)c1cc(F)c2nc(N3[C@@H]4CC[C@H]3C[C@@H](OCc3c(-c5ccccc5OC(F)(F)F)noc3C3CC3)C4)sc2c1 [TROPIFEXOR]	0.63						0.98	0.31		0.63	0.97		0.99						0.6	0.33	
O=C(O)c1ccc2c(c1)nc(NCc1ccccc1)c1ncncc12					-0.98			0.74										-0.17	-0.9	-0.94	Growth Rate ([1]; 0 h, replicate number 1): 0.98
CCn1c(-c2nonc2N)nc2cncc(C(=O)N3CC[C@H](N)C3)c21.Cl					-1										0.88		0.79	-0.71	-0.15	-0.88	Growth Rate ([1]; 0 h, replicate number 1): -1
COc1cnccc1Nc1nc(-c2nn(Cc3c(F)cc(OCCO)cc3F)c3ccccc23)ncc1OC	-0.05	-0.01	0.13	0.21		-0.29	0.31	-0.23	0.04	-0.14	-0.14	-0.03	-0.2	-0.22	0.21	-0.17	0.09	-1	-0.96		Growth Rate ([1]; 0 h, replicate number 1): -1; Growth Rate ([1]; 0 h, replicate number 2): -0.09; Growth Rate ([1]; 6 h, replicate number 2): -0.04; Growth Rate ([1]; 12 h, replicate number 2): 0.06; Growth Rate ([2]; 6 h, replicate number 2): -0.05; Growth Rate ([3]; 18 h, replicate number 2): -0.07
